Assays:
[1] = biological target: T1, Delta2(h) opioid receptor (Homo sapiens, UniProt P41143); test: heterologous competition (displacement) assay, delta opioid receptor; assay type: binding; details: 10 μM mazindol; [3H] [D-Ala2, D-Leu5] enkephalin 0.5 nM; 120 min/22° C.
T1 construct: expressed in transfected cells; host or cells: CHO cell line
Procedure: (§1) A heterologous competition assay was used to determine the relative affinity of mazindol for opioid receptors. Briefly, recombinant μ-, κ- or δ-opioid receptors were expressed in a CHO cell line. The receptors were then saturated with a tritiated receptor-specific ligand at concentrations known to be saturating. Thereupon, 10 μM mazindol was added to the cells in the presence of non-specific ligand and incubated. In this way, mazindol was allowed to “compete” with the receptor-specific ligand, such that greater displacement (i.e., % inhibition) is indicative of greater binding strength of mazindol at a given receptor. “Specific binding” refers here to the difference in the binding of the ligand to the receptors in the presence or absence of an excess of the mazindol.

[2] = biological target: T2, Kappa (rat) opioid receptor (Rattus norvegicus, UniProt P34975); test: heterologous competition (displacement) assay, kappa opioid receptor; assay type: binding; details: 10 μM mazindol; [3H]U 69593 1 nM; 60 min/22° C.
T2 construct: expressed in transfected cells; host or cells: CHO cell line
Procedure: as §1

[3] = biological target: serotonergic reuptake transporter (Homo sapiens, UniProt P31645); details: background statement; cited from earlier work
[4] = biological target: T3, human μ-opioid receptor (Homo sapiens, UniProt P35372); test: heterologous competition (displacement) assay and IC50 determination, μ-opioid receptor; assay type: binding; set-up: binding at the μ-opioid receptor (specific binding), 1st test / binding at the μ-opioid receptor (specific binding), 2nd Test / binding at the μ-opioid receptor (specific binding), Mean: unit not given here
T3 construct: expressed in transfected cells; host or cells: CHO cell line
Procedure: as §1
For this experiment, a range of mazindol concentrations was selected for the ligand blocking assay. The IC50 was determined using non-linear regression analysis of the competition curves using a Hill equation curve fitting (Y=D+[(A−D)/(1+(C/C50)nH)], where Y=specific binding, D=minimum specific binding, A=maximum specific binding, C=compound concentration, C50=IC50, and nH=slope factor). The inhibition constants Ki were calculated using Cheng Prusoff equation. Ki is defined as the concentration of the competing ligand (mazindol) that bound to half the binding sites at equilibrium in the absence of radioligand or other competitors.

[5] = biological target: T4, μ-opioid receptors in the guinea pig ileum (Cavia porcellus, UniProt A0ACM8Q262); test: μ-opioid receptor bioassay, test for agonist activity (twitch contraction amplitude); details: for agonist activity: decrease in twitch contraction amplitude / agonist activity: decrease in twitch contraction amplitude, +Naloxone: mean, n=2
[6] = biological target: H1 receptor (Homo sapiens, UniProt P35367); details: background statement; cited from earlier work
[7] = biological target: dopamine reuptake transporter (Homo sapiens, UniProt Q01959); details: background statement; cited from earlier work
[8] = biological target: T4, μ-opioid receptors in the guinea pig ileum; test: μ-opioid receptor bioassay, test for antagonist activity (DAMGO-induced decrease in twitch contraction amplitude); details: for antagonist activity: response to DAMGO (1.0E−07M) in presence of compound: mean, n=2
[9] = biological target: noradrenergic reuptake transporter (Homo sapiens, UniProt P23975); details: background statement; cited from earlier work

## OC1(c2ccc(Cl)cc2)c2ccccc2C2=NCCN21 (stereo not shown) [mazindol, 5-(p-chloropheny)-2,5-dihydro-3H-imidazo[2,1-a] isoindol-5-ol]
[1]
  inhibition at 10 µM: 14%
[2]
  % Inhib.: 33%
[3]
  binding activity at serotonergic reuptake transporter: specific inhibitory binding activity
[4]
  IC50: 0.69 µM
  Ki: 0.28 µM
[4]; 10 μM mazindol, [3H] Ala2-MePhe4-Gly5-Enkephalin 0.5 nM, 120 min/22° C.
  inhibition at 10 µM: 84%
[4]; M (h) (MOP) (agonist site)
  nH (slope factor): 0.8
[4]; mazindol 1.0E−04 M
  binding at the μ-opioid receptor (specific binding), 1st test: 5.8
  binding at the μ-opioid receptor (specific binding), 2nd Test: 7.4
  binding at the μ-opioid receptor (specific binding), Mean: 6.6
[4]; mazindol 1.0E−05 M
  binding at the μ-opioid receptor (specific binding), 1st test: 12.6
  binding at the μ-opioid receptor (specific binding), 2nd Test: 13.0
  binding at the μ-opioid receptor (specific binding), Mean: 12.8
[4]; mazindol 1.0E−06 M
  binding at the μ-opioid receptor (specific binding), 1st test: 42.4
  binding at the μ-opioid receptor (specific binding), 2nd Test: 41.7
  binding at the μ-opioid receptor (specific binding), Mean: 42.0
[4]; mazindol 1.0E−07 M
  binding at the μ-opioid receptor (specific binding), 1st test: 83.2
  binding at the μ-opioid receptor (specific binding), 2nd Test: 83.2
  binding at the μ-opioid receptor (specific binding), Mean: 83.2
[4]; mazindol 3.0E−05 M
  binding at the μ-opioid receptor (specific binding), 1st test: 9.1
  binding at the μ-opioid receptor (specific binding), 2nd Test: 7.6
  binding at the μ-opioid receptor (specific binding), Mean: 8.3
[4]; mazindol 3.0E−06 M
  binding at the μ-opioid receptor (specific binding), 1st test: 24.7
  binding at the μ-opioid receptor (specific binding), 2nd Test: 26.4
  binding at the μ-opioid receptor (specific binding), Mean: 25.5
[4]; mazindol 3.0E−07 M
  binding at the μ-opioid receptor (specific binding), 1st test: 58.2
  binding at the μ-opioid receptor (specific binding), 2nd Test: 60.9
  binding at the μ-opioid receptor (specific binding), Mean: 59.5
[4]; mazindol 3.0E−08 M
  binding at the μ-opioid receptor (specific binding), 1st test: 102.1
  binding at the μ-opioid receptor (specific binding), 2nd Test: 97.5
  binding at the μ-opioid receptor (specific binding), Mean: 99.8
[5]; compound 1.0E−05 M
  agonist activity: decrease in twitch contraction amplitude: 94% of the control response to DAMGO
[5]; compound 1.0E−06 M
  agonist activity: decrease in twitch contraction amplitude: 25% of the control response to DAMGO
[5]; compound 1.0E−07 M
  agonist activity: decrease in twitch contraction amplitude: 1% of the control response to DAMGO
[5]; compound 3.0E−05M + Naloxone (1.0E−07M)
  agonist activity: decrease in twitch contraction amplitude, +Naloxone: 5% of the control response to DAMGO
[5]; compound 3.0E−05 M
  agonist activity: decrease in twitch contraction amplitude: 103% of the control response to DAMGO
[5]; compound 3.0E−06 M
  agonist activity: decrease in twitch contraction amplitude: 64% of the control response to DAMGO
[5]; compound 3.0E−07 M
  agonist activity: decrease in twitch contraction amplitude: 9% of the control response to DAMGO
[5]; guinea pig ileum
  effect on twitch contraction amplitude: concentration-dependent decrease in the twitch contraction amplitude
  nature of the binding (agonist or antagonist) at the μ-opioid receptors: behaves as an agonist
  reversal of the agonist-like response by reference antagonist naloxone: fully reversed by naloxone
[5]; read-out: Agonist activity EC50 value, guinea pig ileum, linear regression of concentration-response curve
  EC50: 2 µM
[6]
  binding at the H1 receptor: moderately potent binding
[7]
  binding activity at dopamine reuptake transporter: specific inhibitory binding activity
[8]; compound 1.0E−05 M
  antagonist activity: response to DAMGO (1.0E−07M) in presence of compound: 105% of the control response to DAMGO
[8]; compound 1.0E−06 M
  antagonist activity: response to DAMGO (1.0E−07M) in presence of compound: 100% of the control response to DAMGO
[8]; compound 1.0E−07 M
  antagonist activity: response to DAMGO (1.0E−07M) in presence of compound: 100% of the control response to DAMGO
[8]; compound 3.0E−05 M
  antagonist activity: response to DAMGO (1.0E−07M) in presence of compound: 107% of the control response to DAMGO
[8]; compound 3.0E−06 M
  antagonist activity: response to DAMGO (1.0E−07M) in presence of compound: 102% of the control response to DAMGO
[8]; compound 3.0E−07 M
  antagonist activity: response to DAMGO (1.0E−07M) in presence of compound: 100% of the control response to DAMGO
[8]; guinea pig ileum
  Antagonist activity IC50 value: no antagonist effect
  concentrations causing a further decrease in twitch contraction amplitude beyond DAMGO: higher than 1.0E-06 M
  effect on the DAMGO-induced decrease in twitch contraction amplitude: did not reverse the DAMGO-induced decrease in twitch contraction amplitude
[9]
  binding activity at noradrenergic reuptake transporter: specific inhibitory binding activity

## C[C@@H](NC(=O)[C@@H](N)Cc1ccc(O)cc1)C(=O)NCC(=O)N(C)[C@@H](Cc1ccccc1)C(=O)NCCO [DAMGO]
[5]; compound 1.0E−07M + Naloxone (1.0E−07M)
  agonist activity: decrease in twitch contraction amplitude, +Naloxone: −10% of the control response to DAMGO
[5]; compound 1.0E−07 M
  agonist activity: decrease in twitch contraction amplitude: 104% of the control response to DAMGO
[5]; compound 1.0E−08 M
  agonist activity: decrease in twitch contraction amplitude: 62% of the control response to DAMGO
[5]; compound 1.0E−09 M
  agonist activity: decrease in twitch contraction amplitude: 14% of the control response to DAMGO

From patent US12569471B2, “Method of treatment of CNS disorders” (Supernus Pharmaceuticals, Inc., priority 2009, dated 2026)
